Each molecule was assayed against T1, JAK3 (recombinant human kinase domain; h-jak3(810-1124)) (Homo sapiens, UniProt P52333) (assay: Determination of IC50 of Janus Kinase (JAK) inhibition: JAK3, radioactive end-point assay with 33P-ATP). Conditions: JAK3 kinase domain; ATP 1.5 uM, peptide 50 uM, 20 minutes, room temperature, 10% DMSO; read-out: Ic50 h-jak3(810-1124)-sf9-c:no additive.
T1 construct: h-jak3(810- 1124)-sf9-c; made in house; host or cells: Sf9 insect cells
Format: biochemical
Text: Determination of IC50 of Janus Kinase (JAK) Inhibition:
Enzymes and peptide substrate used are described below: • JAK1: Recombinant human kinase domain from Invitrogen (Cat # PV4774) • JAK3: Recombinant human kinase domain from Millipore (Cat #14-629) or prepared. • JAK2: Recombinant human kinase domain from Millipore (Cat #14-640) • Substrate: N-terminally biotinylated 14-mer peptide derived from activation loop of JAK1 with sequence of the peptide substrate: Biotin-[sequence]
Assay Conditions Used are Described Below: • Assay Buffer: JAK Kinase Buffer: 50 mM Hepes [pH 7.2], 10 mM MgCl2, 1 mM DTT, • 1 mg/ml BSA. The assay is carried out in this buffer. • Assay Format The kinase activity of all three JAK kinases is measured using a radioactive, end-point assay and with trace amounts of ^33P-ATP. The assays are carried out in 96-well polypropylene plates.
All concentrations are final in the reaction mixture and all incubations are carried at room temperature. […] Final concentration of DMSO in the reaction is 10%. • 2) Compounds are preincubated with enzyme (0.5 nM JAK3 (commercially available), 0.2 nM JAK3 (prepared), 1 nM JAK2, 5 nM JAK1) for 10 minutes. • 3) Reactions are initiated by the addition of a cocktail of the two substrates (ATP and peptide premixed in the JAK Kinase Buffer). In the JAK2/JAK3 assays, ATP and the peptide are used at concentrations of 1.5 uM and 50 uM, respectively. JAK1 assay is carried out at an ATP concentration of 10 uM and a peptide concentration of 50 uM. • 4) The duration of the assay for JAK2 and JAK3 is 20 minutes. JAK1 assay is carried out for 40 minutes. With all three enzymes, reactions are terminated by the addition of 0.5M EDTA to a final concentration of 100 mM. • 5) 25 ul of terminated reactions are transferred to 150 ul of a 7.5% (v/v) slurry of streptavidin-coated sepharose beads in MgCl2- and CaCl2-free 1× Phosphate Buffered Saline containing 50 mM of EDTA in 96-well, 1.2 um MultiScreen-BV filter plates. • 6) After a 30-minute incubation, the beads are washed under vacuum with the following buffers: • a. 3 to 4 washes with 200 ul of 2M NaCl. • b. 3 to 4 washes with 200 ul of 2M NaCl plus 1% (v/v) phosphoric acid. • c. 1 wash with water. • 7) Washed plates are dried in a 60° C. oven for between 1 to 2 hours. • 8) 70 ul of Microscint 20 scintillation fluid is added to each well of filter plates and after at least 30 minutes of incubation, radioactive counts are measured in a Perkin-Elmer microplate scintillation counter.

T1 sequence (P52333 810-1124): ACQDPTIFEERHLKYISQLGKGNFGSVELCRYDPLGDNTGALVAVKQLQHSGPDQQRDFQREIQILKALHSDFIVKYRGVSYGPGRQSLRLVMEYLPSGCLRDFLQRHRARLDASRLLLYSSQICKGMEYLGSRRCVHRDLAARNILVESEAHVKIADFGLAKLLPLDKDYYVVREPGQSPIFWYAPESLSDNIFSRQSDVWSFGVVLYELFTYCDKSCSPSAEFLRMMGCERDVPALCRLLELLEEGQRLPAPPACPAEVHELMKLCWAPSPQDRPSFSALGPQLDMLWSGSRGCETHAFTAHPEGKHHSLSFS

| SMILES | IC50 [nM] |
| --- | --- |
| CCNC(=O)c1c[nH]c2ncc(Oc3cccc4[nH]ccc34)nc12 [Example I-275, 2-(1H-Indol-4-yloxy)-5H-pyrrolo[2,3-b]pyrazine-7-carboxylic acid ethylamide] | 626 |
| CCNC(=O)c1c[nH]c2ncc(Oc3ccccc3)nc12 [Example I-131, 2-Phenoxy-5H-pyrrolo[2,3-b]pyrazine-7-carboxylic acid ethylamide] | 1030 |
| C[C@H](NC(=O)c1c[nH]c2ncc(-c3ccc(C(=O)N4CC(C#N)C4)s3)nc12)C(C)(C)C [Example I-178, 2-[5-(3-Cyano-azetidine-1-carbonyl)-thiophen-2-yl]-5H-pyrrolo[2,3-b]pyrazine-7-carboxylic acid ((S)-1,2,2-trimethyl-propyl)-amide] | 0.32 |
| CCN(CC)C(=O)c1ccc(-c2cnc3[nH]cc(C(=O)N[C@@H](C)C(C)(C)C)c3n2)s1 [Example I-160, 2-(5-Diethylcarbamoyl-thiophen-2-yl)-5H-pyrrolo[2,3-b]pyrazine-7-carboxylic acid ((S)-1,2,2-trimethyl-propyl)-amide] | 0.32 |
| CC(C)NC(=O)c1c[nH]c2ncc(Oc3ccc4c(c3)[C@H](NC(=O)C3CCOCC3)CC4)nc12 [Example I-283, 2-{(R)-3-[(Tetrahydro-pyran-4-carbonyl)-amino]-indan-5-yloxy}-5H-pyrrolo[2,3-b]pyrazine-7-carboxylic acid isopropylamide] | 56.7 |
| O=C(NC(CO)CO)c1c[nH]c2ncc(C3CC3)nc12 [Example I-51, 2-Cyclopropyl-5H-pyrrolo[2,3-b]pyrazine-7-carboxylic acid (2-hydroxy-1-hydroxymethyl-ethyl)-amide] | 414 |
| C[C@H](NC(=O)c1c[nH]c2ncc(-c3ccc(C(=O)N4CC5(COC5)C4)s3)nc12)C(C)(C)C [Example I-217, 2-[5-(2-Oxa-6-aza-spiro[3.3]heptane-6-carbonyl)-thiophen-2-yl]-5H-pyrrolo[2,3-b]pyrazine-7-carboxylic acid ((S)-1,2,2-trimethyl-propyl)-amide] | 0.11 |
| CC(C)[C@H](CO)NC(=O)c1c[nH]c2ncc(C3CC3)nc12 [Example I-56, 2-Cyclopropyl-5H-pyrrolo[2,3-b]pyrazine-7-carboxylic acid ((R)-1-hydroxymethyl-2-methyl-propyl)-amide] | 9.84 |
| CCNC(=O)c1c[nH]c2ncc(Oc3ccccc3Cl)nc12 [Example I-265, 2-(2-Chloro-phenoxy)-5H-pyrrolo[2,3-b]pyrazine-7-carboxylic acid ethylamide] | 1100 |
| C[C@@H](NC(=O)c1c[nH]c2ncc(C3CC3)nc12)C1(O)CCCC1 [Example I-82, 2-Cyclopropyl-5H-pyrrolo[2,3-b]pyrazine-7-carboxylic acid [(R)-1-(1-hydroxy-cyclopentyl)-ethyl]-amide] | 15.2 |
| C[C@H](NC(=O)c1c[nH]c2ncc(-c3ccc(C(F)(F)F)cc3)nc12)C(C)(C)C [Example I-143, 2-(4-Trifluoromethyl-phenyl)-5H-pyrrolo[2,3-b]pyrazine-7-carboxylic acid ((S)-1,2,2-trimethyl-propyl)-amide] | 6.28 |
| C[C@@H](NC(=O)c1c[nH]c2ncc(-c3nccs3)nc12)C(C)(C)O [Example I-111, 2-Thiazol-2-yl-5H-pyrrolo[2,3-b]pyrazine-7-carboxylic acid ((R)-2-hydroxy-1,2-dimethyl-propyl)-amide] | 276 |
| CC(C)(CO)NC(=O)c1c[nH]c2ncc(C3CC3)nc12 [Example I-45, 2-Cyclopropyl-5H-pyrrolo[2,3-b]pyrazine-7-carboxylic acid (2-hydroxy-1,1-dimethyl-ethyl)-amide] | 208 |
| CC(C)(CO)CNC(=O)c1c[nH]c2ncc(C(F)(F)F)nc12 [Example I-35, 2-Trifluoromethyl-5H-pyrrolo[2,3-b]pyrazine-7-carboxylic acid (3-hydroxy-2,2-dimethyl-propyl)-amide] | 1040 |
| CC(=O)N[C@@H]1CCc2ccc(Oc3cnc4[nH]cc(C(=O)N[C@@H](C)C(C)(C)C)c4n3)cc21 [Example I-287, 2-((R)-3-Acetylamino-indan-5-yloxy)-5H-pyrrolo[2,3-b]pyrazine-7-carboxylic acid ((S)-1,2,2-trimethyl-propyl)-amide] | 20.2 |
| CC(C)NC(=O)c1c[nH]c2ncc(Oc3ccc4ccn(C)c4c3)nc12 [Example I-276, 2-(1-Methyl-1H-indol-6-yloxy)-5H-pyrrolo[2,3-b]pyrazine-7-carboxylic acid isopropylamide] | 574 |
| CCNC(=O)c1c[nH]c2ncc(Oc3cc(OC)cc(OC)c3)nc12 [Example I-263, 2-(3,5-Dimethoxy-phenoxy)-5H-pyrrolo[2,3-b]pyrazine-7-carboxylic acid ethylamide] | 2350 |
| CCNC(=O)c1c[nH]c2ncc(Oc3ccc4c(c3)[C@H](NS(C)(=O)=O)CC4)nc12 [Example I-270, 2-((R)-3-Methanesulfonylamino-indan-5-yloxy)-5H-pyrrolo[2,3-b]pyrazine-7-carboxylic acid ethylamide] | 740 |
| C[C@H](NC(=O)c1c[nH]c2ncc(-c3ccc(C(=O)NCc4c(F)cccc4Cl)s3)nc12)C(C)(C)C [Example I-189, 2-[5-(2-Chloro-6-fluoro-benzylcarbamoyl)-thiophen-2-yl]-5H-pyrrolo[2,3-b]pyrazine-7-carboxylic acid ((S)-1,2,2-trimethyl-propyl)-amide] | 0.6 |
| Cc1cc(-c2cnc3[nH]cc(C(=O)N[C@@H](C)C(C)(C)C)c3n2)sc1C(=O)N1CCS(=O)(=O)CC1 [Example I-220, 2-[5-(1,1-Dioxo-1λ^6-thiomorpholine-4-carbonyl)-4-methyl-thiophen-2-yl]-5H-pyrrolo[2,3-b]pyrazine-7-carboxylic acid ((S)-1,2,2-trimethyl-propyl)-amide] | 0.23 |
| CCNC(=O)c1c[nH]c2ncc(Oc3cccc(C(C)C)c3)nc12 [Example I-250, 2-(3-Isopropyl-phenoxy)-5H-pyrrolo[2,3-b]pyrazine-7-carboxylic acid ethylamide] | 4590 |
| Cc1cc(-c2cnc3[nH]cc(C(=O)N[C@@H](C)C(C)(C)C)c3n2)sc1C(=O)N1CC2(COC2)C1 [Example I-221, 2-[4-Methyl-5-(2-oxa-6-aza-spiro[3.3]heptane-6-carbonyl)-thiophen-2-yl]-5H-pyrrolo[2,3-b]pyrazine-7-carboxylic acid ((S)-1,2,2-trimethyl-propyl)-amide] | 0.08 |
| C[C@@H](NC(=O)c1c[nH]c2ncc(-c3cccs3)nc12)C(C)(C)O [Example I-103, 2-Thiophen-2-yl-5H-pyrrolo[2,3-b]pyrazine-7-carboxylic acid ((R)-2-hydroxy-1,2-dimethyl-propyl)-amide] | 7.25 |
| C[C@@H](NC(=O)c1c[nH]c2ncc(-c3cnn(C)c3)nc12)C(C)(C)O [Example I-102, 2-(1-Methyl-1H-pyrazol-4-yl)-5H-pyrrolo[2,3-b]pyrazine-7-carboxylic acid ((R)-2-hydroxy-1,2-dimethyl-propyl)-amide] | 10.3 |
| Cc1cc(C)nc(Oc2cnc3[nH]cc(C(=O)NC(C)C)c3n2)c1 [Example I-279, 2-(4,6-Dimethyl-pyridin-2-yloxy)-5H-pyrrolo[2,3-b]pyrazine-7-carboxylic acid isopropylamide] | 1110 |

— patent US20140155376A1, “PYRROLOPYRAZINE KINASE INHIBITORS” (Hoffmann-La Roche Inc., priority 2010, published 2014)
